Reference: ChEMBL document CHEMBL4400559, “Exploiting the furo[2,3-b]pyridine core against multidrug-resistant Mycobacterium tuberculosis” (Bioorg Med Chem Lett, 2019)
pIC50: −log10 of the molar value. Values after ≈ are worked out from the molar mass of the structure shown.

Columns and labels:
[1] = system: Mycobacterium tuberculosis; assay: Antibacterial activity against Mycobacterium tuberculosis H37Rv ATCC 27294 after 7 days by resazurin microtiter assay; type: functional; details: H37Rv ATCC 27294, 168 h
[2] = Selectivity index, ratio of IC50 for human MRC5 cells to MIC90 for Mycobacterium tuberculosis H37Rv ATCC 27294; type: toxicity; details: read-out: Selectivity Index
J774.A1 = assay: Cytotoxicity against mouse J774A.1 cells after 24 hrs by resazurin dye-based fluorescence assay; type: cell-based; details: J774.A1, 24 h
MRC5 = assay: Cytotoxicity against human MRC5 cells after 24 hrs by resazurin dye-based fluorescence assay; type: cell-based; details: MRC5, 24 h
[3] = Selectivity index, ratio of IC50 for mouse J774A.1 cells to MIC90 for Mycobacterium tuberculosis H37Rv ATCC 27294; type: toxicity; details: read-out: Selectivity Index

Compound | MIC90 [1] [µM] | selectivity ratio [2] | pIC50 (J774.A1) | pIC50 (MRC5) | selectivity ratio [3]
CCOC(=O)c1c(C(C)C)oc2nc(N3CCOCC3)ccc12 | > 78.5 | – | – | – | –
CCOC(=O)c1c(C(C)C)oc2nc(N3CCCC3)ccc12 | 32.8 (≈ 9.92 µg/mL) | > 10.1 | < 3.48 | < 3.48 | > 10.1
N[C@@H]1CONC1=O [CYCLOSERINE] | 37.1 (≈ 3.79 µg/mL) | – | – | – | –
CCOC(=O)c1c(C(C)C)oc2nccc(N3CCOCC3)c12 | > 78.5 | – | 3.67 | – | –
CCOC(=O)c1c(C(C)C)oc2nccc(N3CCN(c4ccccc4)CC3)c12 | > 63.6 | – | 3.63 | – | –
CNC(=O)c1c(C)oc2nc(N3CCCC3)ccc12 | > 96.4 | – | – | – | –
COc1c(N2C[C@@H]3CCCN[C@@H]3C2)c(F)cc2c(=O)c(C(=O)O)cn(C3CC3)c12 [MOXIFLOXACIN] | < 0.2 | – | – | – | –
CCOC(=O)c1c(C)oc2nc(N3CCN(c4ccccc4)CC3)ccc12 | > 68.5 | – | – | – | –
CCOC(=O)c1c(C(C)C)oc2nccc(N3CCN(c4ccc(Cl)cc4)CC3)c12 | > 58.5 | – | < 3.63 | – | –
CCOC(=O)c1c(C(C)C)oc2nc(N3CCN(c4ccc(Cl)cc4)CC3)ccc12 | > 58.5 | – | – | – | –
CNC(=O)c1c(C(C)C)oc2nc(N3CCCC3)ccc12 | > 87 | – | – | – | –
CNC(=O)c1c(-c2ccc(O)cc2)oc2ccc(O)c(CN3CCCCC3)c12 | 0.09 (≈ 0.0342 µg/mL) | – | – | – | –
CCOC(=O)c1c(C)oc2nccc(N3CCN(c4ccccc4)CC3)c12 | > 68.5 | – | 3.92 | – | –
CCOC(=O)c1c(C)oc2ncc(N3CC[C@@H](F)C3)cc12 | > 85.6 | – | – | < 3.47 | –
CC(C)c1oc2nc(N3CCCC3)ccc2c1C(=O)O | > 91.1 | – | – | – | –
CCOC(=O)c1c(C)oc2nc(N3CCOCC3)ccc12 | > 86.1 | – | – | – | –

Compound | MIC90 [1] [µM] | selectivity ratio [2] | pIC50 (J774.A1) | pIC50 (MRC5) | selectivity ratio [3]
CCOC(=O)c1c(C)oc2ncc(N3CCCC3)cc12 | 82.3 (≈ 22.6 µg/mL) | > 4.4 | 3.59 | < 3.44 | 3.2
CCOC(=O)c1c(-c2ccccc2)oc2ncc(N3CCCC3)cc12 | > 74.4 | – | – | < 3.53 | –
CCOC(=O)c1c(-c2ccccc2)oc2nc(N3CCCC3)ccc12 | > 74.4 | – | – | < 3.53 | –
CCCSc1cnc2oc(C(C)C)c(C(=O)OCC)c2c1 | > 81.3 | – | – | – | –
CCOC(=O)c1c(C)oc2nc(N3CCCC3)ccc12 | 10.5 (≈ 2.88 µg/mL) | > 34.7 | 3.71 | < 3.44 | 18.7
Cc1oc2nc(N3CCCC3)ccc2c1C(=O)O | > 102 | – | – | – | –
NNC(=O)c1ccncc1 [ISONIAZID] | 0.8 (≈ 0.11 µg/mL) | – | – | – | –
CO[C@H]1/C=C/O[C@@]2(C)Oc3c(C)c(O)c4c(O)c(c(/C=N/N5CCN(C)CC5)c(O)c4c3C2=O)NC(=O)/C(C)=C\C=C\[C@H](C)[C@H](O)[C@@H](C)[C@@H](O)[C@@H](C)[C@H](OC(C)=O)[C@@H]1C [RIFAMPIN] | 0.06 (≈ 0.0494 µg/mL) | – | – | – | –
CCCSc1ccc2c(C(=O)OCC)c(C(C)C)oc2n1 | > 81.3 | – | – | – | –
NCC[C@H](O)C(=O)N[C@@H]1C[C@H](N)[C@@H](O[C@H]2O[C@H](CN)[C@@H](O)[C@H](O)[C@H]2O)[C@H](O)[C@H]1O[C@H]1O[C@H](CO)[C@@H](O)[C@H](N)[C@H]1O [AMIKACIN] | 0.4 (≈ 0.234 µg/mL) | – | – | – | –
CCOC(=O)c1c(C)oc2nccc(N3CCOCC3)c12 | > 86.1 | – | < 3.50 | – | –
CCOC(=O)c1c(C)oc2nc(N3CC[C@@H](F)C3)ccc12 | > 85.6 | – | – | < 3.47 | –
CC[C@@H](CO)NCCN[C@@H](CC)CO [ETHAMBUTOL] | 7 (≈ 1.43 µg/mL) | – | – | – | –
CCCCNc1cnc2oc(C(C)C)c(C(=O)OCC)c2c1 | > 82.1 | – | – | – | –
CCCCNc1ccc2c(C(=O)OCC)c(C(C)C)oc2n1 | 23.2 (≈ 7.06 µg/mL) | > 14.2 | < 3.48 | < 3.48 | > 14.2
CCOC(=O)c1c(C(C)C)oc2nc(N3CCN(c4ccccc4)CC3)ccc12 | > 63.6 | – | – | – | –
